Reference: patent publication US10357036B2, “Compounds for controlling arthropods” (priority 2015, dated 2019)

Key:
Myzus persicae = Myzus persicae spray test (Chinese cabbage leaf discs); format: in vivo; conditions: 100 g/ha; after 6 days
Experimental: (§1) After 6 days, the efficacy in % is determined.

Spodoptera frugiperda = Spodoptera frugiperda spray test; format: in vivo; conditions: 100 g/ha; after 7 days
Tetranychus urticae = Tetranychus urticae spray test, OP-resistant (bean leaf discs); format: in vivo; conditions: 100 g/ha; after 6 days
Experimental: as §1

Phaedon cochleariae = Phaedon cochleariae spray test; conditions: 100 g/ha; after 7 days
Ctenocephalides felis [1] = assay: Ctenocephalides felis in vitro contact test with adult cat fleas; format: in vivo; conditions: application rate 5 μg/cm^2 (=500 g/ha); after 48 h; dead or moribund fleas
Experimental: (§2) For the coating of the test tubes, 9 mg of active ingredient are first dissolved in 1 ml of acetone p.a. and then diluted to the desired concentration with acetone p.a. 250 μl of the solution are distributed homogeneously on the inner walls and the base of a 25 ml glass tube by turning and rocking on an orbital shaker (rocking rotation at 30 rpm for 2 h). With 900 ppm of active ingredient solution and internal surface area 44.7 cm^2, given homogeneous distribution, an area-based dose of 5 μg/cm^2 is achieved.
After the solvent has evaporated off, the tubes are populated with 5-10 adult cat fleas (Ctenocephalides felis), sealed with a perforated plastic lid and incubated in a horizontal position at room temperature and ambient humidity. After 48 h, efficacy is determined. To this end, the tubes are stood upright and the fleas are knocked to the base of the tube. Fleas which remain motionless at the base or move in an uncoordinated manner are considered to be dead or moribund.
100% efficacy means that all the fleas were dead or moribund. 0% efficacy means that no fleas were harmed.

Rhipicephalus sanguineus = Rhipicephalus sanguineus in vitro contact test with adult brown dog ticks; format: in vivo; conditions: application rate 5 μg/cm^2 (=500 g/ha); after 48 h; dead or moribund ticks
Experimental: as §2
After the solvent has evaporated off, the tubes are populated with 5-10 adult dog ticks (Rhipicephalus sanguineus), sealed with a perforated plastic lid and incubated in a horizontal position in the dark at room temperature and ambient humidity. After 48 h, efficacy is determined. To this end, the ticks are knocked to the base of the tube and incubated on a hotplate at 45-50° C. for not more than 5 min. Ticks which remain motionless on the base or move in such an uncoordinated manner that they are unable to deliberately avoid the heat by climbing upwards are considered to be dead or moribund.
An efficacy of 100% means that all the ticks were dead or moribund. 0% efficacy means that none of the ticks were harmed.

Boophilus microplus = Boophilus microplus injection test; format: in vivo; conditions: 20 μg/animal; assessed after 7 days
Experimental: (§3) • Solvent: dimethyl sulfoxide
1 μl of the active ingredient solution is injected into the abdomen of 5 engorged adult female cattle ticks (Boophilus microplus). The animals are transferred into dishes and kept in a climate-controlled room.

Ctenocephalides felis [2] = assay: Ctenocephalides felis oral test; format: in vivo; conditions: 100 ppm in citrated cattle blood; after 2 days
Musca domestica = Musca domestica test; format: in vivo; conditions: 100 ppm; adult houseflies; after 2 days
Experimental: as §3
To produce a suitable active ingredient formulation, 10 mg of active ingredient are mixed with 0.5 ml of dimethyl sulfoxide, and the concentrate is diluted with water to the desired concentration.
Vessels containing a sponge treated with sugar solution and the active ingredient formulation of the desired concentration are populated with 10 adult houseflies (Musca domestica).

Row | Compound | efficacy (Myzus persicae) | efficacy (Spodoptera frugiperda) | efficacy (Tetranychus urticae) | efficacy (Phaedon cochleariae) | efficacy (Ctenocephalides felis [1]) | efficacy (Rhipicephalus sanguineus) | efficacy (laying of fertile eggs) (Boophilus microplus) | efficacy (rate of extermination) (Ctenocephalides felis [2]) | efficacy (rate of extermination) (Musca domestica)
1 | CCC(=O)NCc1cc(-c2cnn(-c3c(Cl)cc(C(F)(C(F)(F)F)C(F)(F)F)cc3C(F)F)c2)cnc1Cl [Ia-154] | 90% | 100% | 100% | 100% |  |  |  |  | 
2 | CC(=O)N(Cc1cc(-c2cnn(-c3c(Cl)cc(C(F)(C(F)(F)F)C(F)(F)F)cc3Cl)c2)ccc1Cl)CC1CC1 [Ia-116] |  | 100% | 100% | 100% | 100% | 80% | 100% | 100% | 100%
3 | CC(=O)N(C)Cc1cc(-c2cnn(-c3c(Cl)cc(C(F)(C(F)(F)F)C(F)(F)F)cc3Cl)c2)ccc1Cl [Ia-20] |  | 100% | 100% | 100% | 100% | 80% | 100% | 100% | 90%
4 | Cc1cc(C(F)(C(F)(F)F)C(F)(F)F)cc(Cl)c1-n1cc(-c2ccc(F)c(CNC(=O)C3CC3)c2)cn1 [Ia-67] |  | 100% | 100% | 100% | 80% | 80% | 100% | 100% | 100%
5 | CC(=O)NCc1cc(-c2cnn(-c3c(Cl)cc(C(F)(C(F)(F)F)C(F)(F)F)cc3C(F)(F)F)c2)cnc1Cl [Ia-139] |  | 100% | 90% | 100% | 100% | 100% | 100% | 100% | 100%
6 | CCC(=O)N(C)Cc1cc(-c2cnn(-c3c(Cl)cc(C(F)(C(F)(F)F)C(F)(F)F)cc3OC(F)(F)F)c2)cnc1Cl [Ia-135] | 90% | 100% | 100% | 100% |  |  |  |  | 
7 | CC(=O)NCc1cc(-c2cnn(-c3c(Cl)cc(C(F)(C(F)(F)F)C(F)(F)F)cc3OC(F)F)c2)cnc1Cl [Ia-156] | 90% | 100% | 100% | 100% |  |  |  |  | 
8 | CC(=O)N(C)Cc1cc(-c2cnn(-c3c(Cl)cc(C(F)(C(F)(F)F)C(F)(F)F)cc3OC(F)(F)F)c2)ccc1F [Ia-63] |  | 100% | 100% | 100% | 100% | 80% | 100% | 100% | 100%
9 | CC(=O)NCc1cc(-c2cnn(-c3c(Cl)cc(C(F)(C(F)(F)F)C(F)(F)F)cc3C#N)c2)ccc1Cl [Ia-104] |  | 100% | 100% | 100% | 100% | 100% | 100% | 100% | 100%
10 | CC(=O)NCc1cc(-c2cnn(-c3c(Cl)cc(C(F)(C(F)(F)F)C(F)(F)F)cc3C(F)(F)F)c2)ccc1F [Ia-82] |  | 100% | 100% | 100% | 100% | 100% | 100% | 100% | 100%
11 | O=C(NCc1cc(-c2cnn(-c3c(Cl)cc(C(F)(C(F)(F)F)C(F)(F)F)cc3C(F)F)c2)ccc1F)C1CC1 [Ia-58] | 70% | 100% | 100% | 100% |  |  |  |  | 
12 | CCC(=O)NCc1cc(-c2cnn(-c3c(Cl)cc(C(F)(C(F)(F)F)C(F)(F)F)cc3Cl)c2)ccc1Cl [Ia-16] |  | 100% |  | 100% | 100% | 100% | 100% | 100% | 100%
